Laboratory results published in PubChem BioAssay AID2060603 (Molecular Pharmacology Branch, DTP, NCI, 2025).
Values joined by “and” are separate entries in the source; they are usually repeats but may differ in a detail not shown here. Equal values may be shown once.

Tested on: 422866-222-R5-J1-PDC spheroid viability
Test: Anticancer human tumor 422866-222-R5-J1-PDC patient-derived pancreatic adenocarcinoma cell line growth inhibition [CLK]
Details: spheroids with HUVEC and MSC; for viability, T/C: stronger effect = lower value
Excerpt: A high-throughput screen of multi-cell type tumor spheroids was designed to identify active combinations of […] and targeted small molecules. Complex spheroids include a stromal component modeled by human endothelial cells (HUVEC) and fibroblasts modeled by human mesenchymal stem cells (MSCs). The concentration ranges selected for each drug and investigational agent were based upon clinically achievable concentrations if the clinical Cmax of the agent was known.
Compounds. The drugs and investigational agents: cirtuvivint (SM08502; NSC835563), CC-671 (NSC850746), vemurafenib (NSC761431), tapotoclax (NSC804041), sotorasib (NSC818433), adagrasib (NSC831453), MRTX-1133 (NSC836407), BAY2416964 (NSC825713), copanlisib (NSC816437), inavolisib (NSC800729), abemaciclib (NSC768073), osimertinib (NSC779217), entinostat (NSC756642), eltanexor (KPT-8602, NSC794443), venetoclax (NSC766270), ceralasertib (NSC777638), bortezomib (NSC756655), olaparib (NSC753686), talazoparib (NSC767125), alisertib (NSC759677), peposertib (NSC802822), gemcitabine (NSC613327), 5-fluorouracil (NSC19893), SN-38 (NSC673596), oxaliplatin (NSC266046), paclitaxel (NSC125973), and doxorubicin (NSC123127), were obtained from the National Cancer Institute (NCI) Developmental Therapeutics Program Chemical Repository. The FDA-approved anticancer drug set is available from the Developmental Therapeutics Program at https://dtp.cancer.gov/organization/dscb/obtaining/available plates.htm. […] The stock solutions were prepared in dimethyl sulfoxide (DMSO, Sigma-Aldrich, St. Louis, MO, cat. D2650), except for the platinum complexes which were prepared in saline (Quality Biological, Gaithersburg, MD, cat. 114-055-101), at 800-fold the tested concentration and stored at -70 degrees C prior to their use. All drugs and investigational agents were tested over a range starting from a high concentration at or near the clinical Cmax and decreasing in half-log increments. If the clinical Cmax for an agent had not been determined, the highest concentration tested was 10 microM.
Cell Culture. All cells were maintained in an incubator at 37 degrees C and 5% CO2 with 95% humidity. The PDC lines were cultured according to standard operating procedures established by the NCI PDMR. Briefly, all PDCs were thawed and cultured in Matrigel-coated flasks prepared with a working solution of 1X Ham's F-12 nutrient mix, without supplementation (Invitrogen, Waltham, MA, cat. 11765054), 100 U/mL penicillin-streptomycin (Invitrogen, cat. 15140122), and 2.5% Matrigel (Corning Inc., Corning, NY, cat. 354248) for the first three passages. The 947758-054-R-J2-PDC line was cultured in 6B/Colon 1A media, which includes advanced DMEM/F-12 (Thermo Fisher Scientific, cat. 12634028), 10 mM HEPES (Thermo Fisher Scientific, cat. 15630080), 1X GlutaMAX supplement (Thermo Fisher Scientific, cat. 35050061), 0.1 mg/mL primocin (InvivoGen, cat. ant-pm-2), 10% defined fetal bovine serum, heat inactivated (HyClone Laboratories Inc., cat. SH30070.03HI), 1.25 mM N-Acetyl-L-cysteine (Sigma-Aldrich, cat. A9165), 10 mM nicotinamide (Sigma-Aldrich, cat. N0636), 1X B-27 supplement (Thermo Fisher Scientific, cat. 17504044), 1X N-2 supplement (Thermo Fisher Scientific, cat. 17502048), and 10 microM Y-27632 dihydrochloride (Tocris Bioscience, cat. 1254). The 876862-298-R-J1-PDC was cultured in 6E media, which includes all 6B/Colon 1A media components plus 50% L-WRN conditioned media (ATCC, cat. CRL-3276), 50 ng/mL recombinant human EGF recombinant protein (hEGF; Thermo Fisher Scientific, cat. PHG0311), 10 ng/mL recombinant human fibroblast growth factor 10 (hGFG-10; PeproTech, cat. 100-26), 1 ng/mL recombinant human fibroblast growth factor 2 (hFGF-2; PeproTech, cat. 100-18B), and 1 µM prostaglandin E2 (PGE2; Tocris, cat. 2296). The 227483-062-R1-J1-PDC line was cultured in Panc media, containing all 6E components except hFGF-2, with the addition of 500 nM SB-431542 (Selleckchem, cat. S1067) and 10 nM gastrin (Tocris, cat. 3006). […]
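Note: spheroids exposed to agents for seven days before readout.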

SMILES	viability, T/C (compound 0.0316 µM)	viability, T/C (compound 0.1 µM)	viability, T/C (compound 0.316 µM)	viability, T/C (compound 1 µM)	viability, T/C (compound 3.16 µM)	viability, T/C (compound 10 µM)	IC50 (curve of compound)	viability, T/C (compound 0.00316 µM)	viability, T/C (compound 0.01 µM)	further results
C#Cc1c(F)ccc2cc(O)cc(-c3ncc4c(N5CC6CCC(C5)N6)nc(OCC56CCCN5CC(F)C6)nc4c3F)c12 (stereo not given)	76.7% and 87.4%	73.1% and 85.8%	55.9% and 64.3%	51.7% and 67%	36.1% and 38.3%	26.8% and 29.4%	881 nM and 1900 nM			
C=C(F)C(=O)N1CCN(c2nc(OCC3CCCN3C)nc3c2CCN(c2cccc4cccc(Cl)c24)C3)CC1CC#N (stereo not given)	31.6% and 42%	23.6% and 24.5%	19.6% and 21%	26.1% and 22.8%	11.2% and 15.2%	0.14%	< 31.6 nM			
C=CC(=O)N1CCN(c2nc(=O)n(-c3c(C)ccnc3C(C)C)c3nc(-c4c(O)cccc4F)c(F)cc23)C(C)C1 (stereo not given)	33% and 35.7%	27% and 28.4%	24.9% and 25.6%	27.6% and 25.6%	32.8% and 25.4%	25.2% and 30%	< 31.6 nM			
C=CC(=O)Nc1cc(Nc2nccc(-c3cn(C)c4ccccc34)n2)c(OC)cc1N(C)CCN(C)C							> 300 nM			viability, T/C (compound 0.000949 µM): 117% and 87.2%; viability, T/C (compound 0.003 µM): 106% and 102%; viability, T/C (compound 0.00949 µM): 83% and 85%; viability, T/C (compound 0.03 µM): 93.5% and 83.8%; viability, T/C (compound 0.0949 µM): 82.8% and 69%; viability, T/C (compound 0.3 µM): 74.9% and 72.9%
CC(C)CC(NC(=O)C(Cc1ccccc1)NC(=O)c1cnccn1)B(O)O (stereo not given)							4.28 nM and 5.36 nM			viability, T/C (compound 0.000949 µM): 95.5% and 91.7%; viability, T/C (compound 0.003 µM): 64.7% and 73.9%; viability, T/C (compound 0.00949 µM): 16.9% and 26.7%; viability, T/C (compound 0.03 µM): 2.66% and 2.25%; viability, T/C (compound 0.0949 µM): 0.86% and 0.8%; viability, T/C (compound 0.3 µM): 2.88% and 1.33%
CCCS(=O)(=O)Nc1ccc(F)c(C(=O)c2c[nH]c3ncc(-c4ccc(Cl)cc4)cc23)c1F	103% and 89.2%	100% and 86%	128% and 114%	147% and 152%	169% and 165%	137% and 149%	> 10000 nM			
CCN1CCN(Cc2ccc(Nc3ncc(F)c(-c4cc(F)c5nc(C)n(C(C)C)c5c4)n3)nc2)CC1	87% and 73.9%	82.6% and 59.1%	80.8% and 66.4%	98.7% and 90.2%			> 1000 nM	99.5% and 74%	84% and 78.8%	
CCc1c2c(nc3ccc(O)cc13)-c1cc3c(c(=O)n1C2)COC(=O)[C@]3(O)CC	44% and 44.3%	47.2% and 45.5%	41.7% and 43.5%	19.9% and 18.4%			< 3.16 nM	45.8% and 52.3%	37% and 43.1%	
CNC(=O)c1ccc(Nc2nc(OC3CCCC3)c3c(-c4ccc5nc(C)oc5c4)c[nH]c3n2)c(OC)c1	99.4% [middle of 12 runs]	93.4% [middle of 12 runs]	70.8% [middle of 12 runs]	68.3% [middle of 12 runs]	74.5% [middle of 12 runs]					IC50 (compound alone, run of 08/15/2023): > 10000 nM
COC1C=CCC(C)C(C)S(=O)(=O)NC(=O)c2ccc3c(c2)N(CC2CCC21)CC1(CCCc2cc(Cl)ccc21)CO3 (stereo not given)	102% and 113%	91.9% and 102%	95.6% and 101%	97.8% and 87.8%	87.5% and 111%	59.8% and 69.4%	> 10000 nM			
COc1c(OCCCN2CCOCC2)ccc2c3n(c(=NC(=O)c4cnc(N)nc4)nc12)CCN3	37.6% and 32.8%	33.2% and 29.1%	29.7% and 26%	32.4% and 33.2%			15.4 nM and 14.8 nM	78.6% and 87.6%	57.4% and 58.9%	
Cn1ncnc1[C@H]1c2n[nH]c(=O)c3cc(F)cc(c23)N[C@@H]1c1ccc(F)cc1	91.4%	85% and 87.1%					> 100 nM	97% and 99.8%	101% and 87.8%	viability, T/C (compound 0.000316 µM): 86.9% and 103%; viability, T/C (compound 0.001 µM): 110% and 95.5%
NC(=O)C(=Cn1cnc(-c2cc(C(F)(F)F)cc(C(F)(F)F)c2)n1)c1cncnc1							> 3000 nM			viability, T/C (compound 0.00949 µM): 95.7% and 97.4%; viability, T/C (compound 0.03 µM): 103% and 84%; viability, T/C (compound 0.0949 µM): 86.1% and 81.5%; viability, T/C (compound 0.3 µM): 72.6% and 58.2%; viability, T/C (compound 0.949 µM): 89.1% and 92.3%; viability, T/C (compound 3 µM): 76.9% and 76.2%
